Tested on: HCT116
Test: In Vitro cytotoxicity measured by the cell colony formation assay
Format: cell-based
Settings: Homo sapiens, HCT-116; 72 h drug incubation, colonies counted after 7 days; concentration producing 50% inhibition of colony formation; read-out: IN VITRO ID 50 (nm) HCT116
Protocol: In Vitro cytotoxicity measured by the cell colony formation assay
Four hundred cells (HCT116) were plated in 60 mm Petri dishes containing 2.7 mL of medium (modified McCoy's 5a medium containing 10% fetal bovine serum and 100 units/mL penicillin and […] streptomycin). The cells were incubated in a CO2 incubator at 37 °C for 5 h for attachment to the bottom of Petri dishes. The compounds identified in Example 2 were made up fresh in medium at ten times the final concentration, and then 0.3 mL of this stock solution was added to the 2.7 mL of medium in the dish. The cells were then incubated with drugs for 72 h at 37 ° C. At the end of incubation the drug-containing media were decanted, the dishes were rinsed with 4 mL of Hank's Balance Salt Solution (HBSS), 5 mL of fresh medium was added, and the dishes were returned to the incubator for colony formation. The cell colonies were counted using a colony counter after incubation for 7 days. Cell survival was calculated and the values of ID50 (the drug concentration producing 50% inhibition of colony formation) were determined for each tested compound.

SMILES	IC50 [nM]
CCC(=O)O[C@H]1C[C@H]2OC[C@@]2(OC(C)=O)[C@H]2[C@H](OC(=O)c3ccccc3)[C@]3(O)C[C@H](OC(=O)[C@H](O)[C@@H](NC(=O)OC(C)(C)C)c4cccnc4)C(C)=C([C@@H](O)C(=O)[C@]12C)C3(C)C [Compound 1372]	26.1
CCC(=O)O[C@H]1C[C@H]2OC[C@@]2(OC(C)=O)[C@H]2[C@H](OC(=O)c3ccccc3)[C@]3(O)C[C@H](OC(=O)[C@H](O)[C@@H](NC(=O)c4ccccc4)c4ccsc4)C(C)=C([C@@H](O)C(=O)[C@]12C)C3(C)C [Compound 3388]	< 10
CCCC(=O)OC1CC2OCC2(OC(C)=O)C2C(OC(=O)c3ccccc3)C3(O)CC(OC(=O)C(O)C(NC(=O)OCC(C)C)c4cccs4)C(C)=C(C(O)C(=O)C12C)C3(C)C (stereo not drawn) [Compound 4290]	< 10
CCCC(=O)OC1CC2OCC2(OC(C)=O)C2C(OC(=O)c3ccccc3)C3(O)CC(OC(=O)C(O)C(NC(=O)OC(C)(C)C)c4ccsc4)C(C)=C(C(O)C(=O)C12C)C3(C)C (stereo not drawn) [Compound 4446]	< 1
CCCC(=O)O[C@H]1C[C@H]2OC[C@@]2(OC(C)=O)[C@H]2[C@H](OC(=O)c3ccccc3)[C@]3(O)C[C@H](OC(=O)[C@H](O)[C@@H](NC(=O)c4ccccc4)c4cccs4)C(C)=C([C@@H](O)C(=O)[C@]12C)C3(C)C [Compound 4414]	< 1
CCCC(=O)O[C@H]1C[C@H]2OC[C@@]2(OC(C)=O)[C@H]2[C@H](OC(=O)c3ccccc3)[C@]3(O)C[C@H](OC(=O)[C@H](O)[C@@H](NC(=O)c4cccs4)c4cccs4)C(C)=C([C@@H](O)C(=O)[C@]12C)C3(C)C [Compound 4454]	< 1
C/C=C/C(=O)N[C@@H](c1ccco1)[C@@H](O)C(=O)O[C@H]1C[C@@]2(O)[C@@H](OC(=O)c3ccccc3)[C@@H]3[C@]4(OC(C)=O)CO[C@@H]4C[C@H](OC(=O)C(C)C)[C@@]3(C)C(=O)[C@H](O)C(=C1C)C2(C)C [Compound 6202]	< 1
CCC(=O)O[C@H]1C[C@H]2OC[C@@]2(OC(C)=O)[C@H]2[C@H](OC(=O)c3ccccc3)[C@]3(O)C[C@H](OC(=O)[C@H](O)[C@@H](NC(=O)OCC(C)C)c4ccoc4)C(C)=C([C@@H](O)C(=O)[C@]12C)C3(C)C [Compound 4787]	< 10
CCC(=O)O[C@H]1C[C@H]2OC[C@@]2(OC(C)=O)[C@H]2[C@H](OC(=O)c3ccccc3)[C@]3(O)C[C@H](OC(=O)[C@H](O)[C@@H](NC(=O)OC(C)(C)C)C4CC4)C(C)=C([C@@H](O)C(=O)[C@]12C)C3(C)C [Compound 5070]	< 10
CCC(C)(C)OC(=O)N[C@@H](c1ccco1)[C@@H](O)C(=O)O[C@H]1C[C@@]2(O)[C@@H](OC(=O)c3ccccc3)[C@@H]3[C@]4(OC(C)=O)CO[C@@H]4C[C@H](OC(=O)C(C)C)[C@@]3(C)C(=O)[C@H](O)C(=C1C)C2(C)C [Compound 6252]	< 1
CCCC(=O)O[C@H]1C[C@H]2OC[C@@]2(OC(C)=O)[C@H]2[C@H](OC(=O)c3ccccc3)[C@]3(O)C[C@H](OC(=O)[C@H](O)[C@H](C=C(C)C)NC(=O)OCC(C)C)C(C)=C([C@@H](O)C(=O)[C@]12C)C3(C)C [Compound 5131]	< 10
CCCC(=O)OC1CC2OCC2(OC(C)=O)C2C(OC(=O)c3ccccc3)C3(O)CC(OC(=O)C(O)C(NC(=O)OCC(C)C)c4ccsc4)C(C)=C(C(O)C(=O)C12C)C3(C)C (stereo not drawn) [Compound 4600]	< 10
CCCCC(=O)O[C@H]1C[C@H]2OC[C@@]2(OC(C)=O)[C@H]2[C@H](OC(=O)c3ccccc3)[C@]3(O)C[C@H](OC(=O)[C@H](O)[C@@H](NC(=O)OC(C)(C)CC)c4ccco4)C(C)=C([C@@H](O)C(=O)[C@]12C)C3(C)C [Compound 6343]	< 10
CCCC(=O)OC1CC2OCC2(OC(C)=O)C2C(OC(=O)c3ccccc3)C3(O)CC(OC(=O)C(O)C(NC(=O)OC(C)(C)C)c4cccs4)C(C)=C(C(O)C(=O)C12C)C3(C)C (stereo not drawn) [Compound 4256]	< 1
CCCC(=O)N[C@@H](c1cccs1)[C@@H](O)C(=O)O[C@H]1C[C@@]2(O)[C@@H](OC(=O)c3ccccc3)[C@@H]3[C@]4(OC(C)=O)CO[C@@H]4C[C@H](OC(=O)CC)[C@@]3(C)C(=O)[C@H](O)C(=C1C)C2(C)C [Compound 3327]	< 10

Source: EP1285918A1, “C7 Ester substituted taxanes as antitumor agents” (Florida State University Research Foundation, Inc., priority 2001, dated 2003)
